The text below walks through data of US9776995B2, “Bicyclic sulfonamide compounds as sodium channel inhibitors” (AMGEN INC., priority 2013, dated 2017).

pIC50: −log10 of the molar value.

T1 sequence (Q15858 whole entry): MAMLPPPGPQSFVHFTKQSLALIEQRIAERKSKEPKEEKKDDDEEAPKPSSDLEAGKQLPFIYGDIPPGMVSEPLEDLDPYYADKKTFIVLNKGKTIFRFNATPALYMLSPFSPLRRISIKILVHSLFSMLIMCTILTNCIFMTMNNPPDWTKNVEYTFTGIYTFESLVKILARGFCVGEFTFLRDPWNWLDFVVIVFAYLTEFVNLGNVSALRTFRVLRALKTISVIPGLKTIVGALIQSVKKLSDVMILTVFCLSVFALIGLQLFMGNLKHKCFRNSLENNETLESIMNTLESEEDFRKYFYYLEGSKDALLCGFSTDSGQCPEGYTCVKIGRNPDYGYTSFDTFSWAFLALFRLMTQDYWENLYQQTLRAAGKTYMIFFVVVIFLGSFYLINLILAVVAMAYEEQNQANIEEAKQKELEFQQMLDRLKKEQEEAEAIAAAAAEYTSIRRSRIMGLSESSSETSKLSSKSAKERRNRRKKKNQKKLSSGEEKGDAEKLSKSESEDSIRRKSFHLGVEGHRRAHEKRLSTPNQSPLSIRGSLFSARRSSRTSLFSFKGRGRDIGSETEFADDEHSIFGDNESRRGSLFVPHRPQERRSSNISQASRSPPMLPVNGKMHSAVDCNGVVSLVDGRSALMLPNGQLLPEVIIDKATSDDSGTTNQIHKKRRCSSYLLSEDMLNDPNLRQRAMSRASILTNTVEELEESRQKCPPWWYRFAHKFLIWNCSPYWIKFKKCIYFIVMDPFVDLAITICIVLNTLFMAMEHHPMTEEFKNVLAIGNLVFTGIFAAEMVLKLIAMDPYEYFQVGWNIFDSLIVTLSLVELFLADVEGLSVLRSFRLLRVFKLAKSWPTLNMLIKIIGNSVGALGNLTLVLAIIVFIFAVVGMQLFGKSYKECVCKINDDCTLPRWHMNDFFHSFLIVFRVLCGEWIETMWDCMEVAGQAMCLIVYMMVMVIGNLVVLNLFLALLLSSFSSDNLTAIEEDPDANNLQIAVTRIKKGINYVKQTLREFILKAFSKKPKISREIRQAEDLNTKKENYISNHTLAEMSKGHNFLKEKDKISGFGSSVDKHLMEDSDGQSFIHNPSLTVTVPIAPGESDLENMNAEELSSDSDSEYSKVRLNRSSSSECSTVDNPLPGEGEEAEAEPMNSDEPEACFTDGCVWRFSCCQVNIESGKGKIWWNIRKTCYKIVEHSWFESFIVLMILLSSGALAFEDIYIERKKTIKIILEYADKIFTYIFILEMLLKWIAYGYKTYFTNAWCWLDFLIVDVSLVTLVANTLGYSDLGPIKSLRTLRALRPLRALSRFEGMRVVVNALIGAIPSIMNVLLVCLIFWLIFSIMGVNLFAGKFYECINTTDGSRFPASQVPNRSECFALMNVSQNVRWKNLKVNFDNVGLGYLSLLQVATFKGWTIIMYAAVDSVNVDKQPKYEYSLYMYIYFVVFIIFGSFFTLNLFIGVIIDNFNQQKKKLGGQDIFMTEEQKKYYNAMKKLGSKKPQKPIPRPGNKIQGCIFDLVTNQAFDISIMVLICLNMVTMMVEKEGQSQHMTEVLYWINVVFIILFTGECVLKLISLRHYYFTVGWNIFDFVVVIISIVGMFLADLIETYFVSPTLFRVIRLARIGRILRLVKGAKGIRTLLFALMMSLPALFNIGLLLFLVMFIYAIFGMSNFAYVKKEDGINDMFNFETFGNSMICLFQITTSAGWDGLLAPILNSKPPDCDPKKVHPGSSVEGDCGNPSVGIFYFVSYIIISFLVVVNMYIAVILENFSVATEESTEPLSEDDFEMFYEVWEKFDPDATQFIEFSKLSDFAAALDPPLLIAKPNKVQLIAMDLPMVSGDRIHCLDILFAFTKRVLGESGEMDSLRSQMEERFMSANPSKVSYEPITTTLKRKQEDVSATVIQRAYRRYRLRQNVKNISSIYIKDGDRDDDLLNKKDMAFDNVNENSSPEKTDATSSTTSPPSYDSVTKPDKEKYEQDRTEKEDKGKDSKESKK

One assay has as its target T1, Nav 1.7 (Homo sapiens (Human), UniProt Q15858). Nature of the assay: Nav 1.7 in vitro PX assay (PatchXpress whole cell voltage clamp).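 Note: holding potential set for 20 to 50% inactivation, sodium current evoked by a 20 ms step to −10 mV, peak current inhibition read after compound exposure, 3–5 cells per concentration.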 The format is cell-based. The conditions noted are these: HEK 293 cells stably transfected with human Nav1.7; PatchXpress; partially inactivated state.
With `COc1cc(-c2cccc(F)c2)c(Cl)cc1-c1c(C)ncc2cc(S(=O)(=O)Nc3ccon3)ccc12` (atropisomer, axis not shown; (M)) [Example 317, (M)-4-(2-chloro-3′-fluoro-5-methoxy-4-biphenylyl)-N-3-isoxazolyl-3-methyl-7-isoquinolinesulfonamide], the pIC50 – broadly, the IC50 on a negative log10 scale, so that one unit is a factor of ten – was 7.14.

Regarding `COc1cc(-c2cccc(F)c2)c(Cl)cc1-c1c(C)cnc2cc(S(=O)(=O)Nc3ccon3)ccc12` (atropisomer, axis not shown; (M)) [Example 330, (M)-4-(2-chloro-3′-fluoro-5-methoxy-[1,1′-biphenyl]-4-yl)-N-(isoxazol-3-yl)-3-methylquinoline-7-sulfonamide], the pIC50 is 6.30.

On to `CCc1cnc2cc(S(=O)(=O)Nc3ccon3)ccc2c1-c1cc(Cl)c(-c2cccc(F)c2)cc1OC` (atropisomer, axis not shown; (M)) [Example 332, (M)-4-(2-chloro-3′-fluoro-5-methoxy-[1,1′-biphenyl]-4-yl)-3-ethyl-N-(isoxazol-3-yl)quinoline-7-sulfonamide], for which the pIC50 was 4.47.

Turning to `COc1cc(-c2cccc(F)c2)c(Cl)cc1-c1c(C#N)cnc2cc(S(=O)(=O)Nc3ccon3)ccc12` (atropisomer, axis not shown; (M)) [Example 334, (M)-4-(2-chloro-3′-fluoro-5-methoxy-[1,1′-biphenyl]-4-yl)-3-cyano-N-(isoxazol-3-yl)quinoline-7-sulfonamide], the pIC50 was 7.00.

The target of the next assay is T1, Nav 1.7. Nature of the assay: in-vitro Nav 1.7 PX data. The format is cell-based. The conditions noted are these: in-vitro Nav 1.7 PX data.
The compound `COc1cc(-c2cc(F)cc(F)c2)ccc1-c1nccc2cc(S(=O)(=O)Nc3cnccn3)ccc12` [Example 140, 1-(3′,5′-difluoro-3-methoxy-4-biphenylyl)-N-2-pyrazinyl-6-isoquinolinesulfonamide] showed a pIC50 of 6.19.

`COc1cc(-c2cc(F)cc(F)c2)ccc1-c1nccc2cc(S(=O)(=O)Nc3ccccn3)ccc12` [Example 141, 1-(3′,5′-difluoro-3-methoxy-4-biphenylyl)-N-2-pyridinyl-6-isoquinolinesulfonamide] gave a pIC50 of 6.00.

In turn, `COc1cc(-c2cc(F)cc(F)c2)ccc1-c1nccc2cc(S(=O)(=O)Nc3ncc(C(F)(F)F)o3)ccc12` [Example 143, 1-(3′,5′-difluoro-3-methoxy-4-biphenylyl)-N-(5-(trifluoromethyl)-1,3-oxazol-2-yl)-6-isoquinolinesulfonamide] had a pIC50 of 5.49.

`COc1cc(C#N)c(-c2cc(F)cc(F)c2)cc1-c1nccc2cc(S(=O)(=O)Nc3ccncn3)ccc12` [Example 145, 1-(6-cyano-3′,5′-difluoro-4-methoxy-3-biphenylyl)-N-4-pyrimidinyl-6-isoquinolinesulfonamide]: the pIC50 was 5.04.

`COc1cc(-c2cccc(C(F)(F)F)c2)c(C#N)cc1-c1nccc2cc(S(=O)(=O)Nc3ccon3)ccc12` [Example 148, 1-(2-cyano-5-methoxy-3′-(trifluoromethyl)-4-biphenylyl)-N-3-isoxazolyl-6-isoquinolinesulfonamide] had a pIC50 of 7.54.

`COc1cc(NS(=O)(=O)c2ccc3c(-c4ccc(-c5cc(F)cc(F)c5)cc4OC)nccc3c2)no1` [Example 149, 1-(3′,5′-difluoro-3-methoxy-4-biphenylyl)-N-(5-methoxy-3-isoxazolyl)-6-isoquinolinesulfonamide] gave a negative logarithm of the IC50 (pIC50) of 5.84.

Compound `COc1cc(C#N)c(-c2cc(F)cc(F)c2)cc1-c1nccc2cc(S(=O)(=O)Nc3nncs3)ccc12` [Example 150, 1-(6-cyano-3′,5′-difluoro-4-methoxy-3-biphenylyl)-N-1,3,4-thiadiazol-2-yl-6-isoquinolinesulfonamide] had a pIC50 of 5.22.

Consider `COc1ncc(-c2ccccc2)cc1-c1nccc2cc(S(=O)(=O)Nc3ccncn3)ccc12` [Example 152, 1-(2-methoxy-5-phenyl-3-pyridinyl)-N-4-pyrimidinyl-6-isoquinolinesulfonamide], for which the pIC50 was 5.61.

`Cc1ccc(OCC2CC2)cc1-c1nccc2cc(S(=O)(=O)Nc3ccncn3)ccc12` [Example 153, 1-(5-(cyclopropylmethoxy)-2-methylphenyl)-N-4-pyrimidinyl-6-isoquinolinesulfonamide] had a pIC50 of 5.11.

`COc1cc(-c2cccnc2OC)ccc1-c1nccc2cc(S(=O)(=O)Nc3nncs3)ccc12` [Example 166, 1-(2-methoxy-4-(2-methoxy-3-pyridinyl)phenyl)-N-1,3,4-thiadiazol-2-yl-6-isoquinolinesulfonamide] gave a negative-log IC50 (pIC50) of 6.10.

For the compound `COc1cc(-c2nccc3cc(S(=O)(=O)Nc4ccon4)ccc23)c(C)cc1-c1cccc(F)c1` [Example 167, 1-(3′-fluoro-2-methoxy-5-methyl-4-biphenylyl)-N-3-isoxazolyl-6-isoquinolinesulfonamide], the pIC50 was 5.57.

Take `COc1ccc(F)cc1-c1cc(C)c(-c2ncnc3cc(S(=O)(=O)Nc4ccon4)ccc23)cc1OC` [Example 168, 4-(5′-fluoro-2,2′-dimethoxy-5-methyl-4-biphenylyl)-N-3-isoxazolyl-7-quinazolinesulfonamide]: the pIC50 was 5.07.

The compound `COc1cc(C(F)F)c(Cl)cc1-c1nccc2cc(S(=O)(=O)Nc3ccon3)ccc12` [Example 169, 1-(5-chloro-4-(difluoromethyl)-2-methoxyphenyl)-N-3-isoxazolyl-6-isoquinolinesulfonamide] showed a pIC50 of 6.98.

As for `COc1ccc(C)c(-c2cc(C)c(-c3ncnc4cc(S(=O)(=O)Nc5ccon5)ccc34)cc2OC)c1` [Example 173, 4-(2,5′-dimethoxy-2′,5-dimethyl-4-biphenylyl)-N-3-isoxazolyl-7-quinazolinesulfonamide], the negative logarithm of the IC50 (pIC50) is 5.42. This pIC50 lies 1.56 log units lower than the previous one.

The same assay, now with this note: in-vitro PX.
In the case of `COc1cc(-c2ccc(Cl)c(C)c2)c(Cl)cc1-c1ncnc2cc(S(=O)(=O)Nc3ccon3)ccc12` [Example 204, 4-(2,4′-dichloro-5-methoxy-3′-methyl-4-biphenylyl)-N-3-isoxazolyl-7-quinazolinesulfonamide], the pIC50 is 7.66.

For the compound `COc1cc(-c2cc(F)cc(F)c2)c(Cl)cc1-c1ncnc2cc(S(=O)(=O)Nc3ccon3)ccc12` [Example 206, 4-(2-chloro-3′,5′-difluoro-5-methoxy-4-biphenylyl)-N-3-isoxazolyl-7-quinazolinesulfonamide], the pIC50 was 7.84.

With `COc1cc(-c2cccc(F)c2)c(Cl)cc1-c1ncnc2cc(S(=O)(=O)Nc3cnsn3)ccc12` [Example 207, 4-(2-chloro-3′-fluoro-5-methoxy-4-biphenylyl)-N-1,2,5-thiadiazol-3-yl-7-quinazolinesulfonamide], the pIC50 was 7.29. This pIC50 lies 0.55 log units lower than the previous one.

For the compound `COc1cc(-c2cccc(F)c2)ccc1-c1ccnc2cc(S(=O)(=O)Nc3nncs3)ccc12` [Example 210, 4-(3′-fluoro-3-methoxy-4-biphenylyl)-N-1,3,4-thiadiazol-2-yl-7-quinolinesulfonamide], the pIC50 is 5.98.

For `COc1cc(-c2cccc(F)n2)c(F)cc1-c1nccc2cc(S(=O)(=O)Nc3nncs3)ccc12` [Example 212, 1-(5-fluoro-4-(6-fluoro-2-pyridinyl)-2-methoxyphenyl)-N-1,3,4-thiadiazol-2-yl-6-isoquinolinesulfonamide], the pIC50 is 5.86.

`COc1cc(-c2ccc(F)c(C)c2)c(Cl)cc1-c1ncnc2cc(S(=O)(=O)Nc3ccon3)ccc12` [Example 213, 4-(2-chloro-4′-fluoro-5-methoxy-3′-methyl-4-biphenylyl)-N-3-isoxazolyl-7-quinazolinesulfonamide]: the pIC50 was 7.42.

Compound `COc1cc(-c2cc(F)cnc2OC)c(Cl)cc1-c1ncnc2cc(S(=O)(=O)Nc3ccon3)ccc12` [Example 214, 4-(5-chloro-4-(5-fluoro-2-methoxy-3-pyridinyl)-2-methoxyphenyl)-N-3-isoxazolyl-7-quinazolinesulfonamide] showed a pIC50 of 7.70.

Compound `COc1cc(-c2cccc(F)c2)c(Cl)cc1-c1n[nH]c(=O)c2cc(S(=O)(=O)Nc3ccon3)ccc12` [Example 232, 1-(2-chloro-3′-fluoro-5-methoxy-4-biphenylyl)-N-3-isoxazolyl-4-oxo-3,4-dihydro-6-phthalazinesulfonamide] had a pIC50 of 6.90.

`COc1nc(Cl)c(Cl)cc1-c1nccc2cc(S(=O)(=O)Nc3nncs3)ccc12` [Example 240, 1-(5,6-dichloro-2-methoxy-3-pyridinyl)-N-1,3,4-thiadiazol-2-yl-6-isoquinolinesulfonamide] had a pIC50 of 5.73. This pIC50 is 1.17 log units lower than that of the compound before.

`COc1nc(N(C)C)c(Cl)cc1-c1nccc2cc(S(=O)(=O)Nc3nncs3)ccc12` [Example 242, 1-(5-chloro-6-(dimethylamino)-2-methoxy-3-pyridinyl)-N-1,3,4-thiadiazol-2-yl-6-isoquinolinesulfonamide] gave a pIC50 of 5.73.

Staying with this assay, now noted: in-vitro PX (PatchXpress) data.
Take `COc1cc(Oc2cc(F)cc(F)c2)ccc1-c1nccc2cc(S(=O)(=O)Nc3ccncn3)ccc12` [Example 178, 1-(4-(3,5-difluorophenoxy)-2-methoxyphenyl)-N-4-pyrimidinyl-6-isoquinolinesulfonamide]: the pIC50 was 4.73.

In turn, `O=S(=O)(Nc1nncs1)c1ccc2c(-c3ccc(C(F)(F)F)cc3C3CC3)ncnc2c1` [Example 192, 4-(2-cyclopropyl-4-(trifluoromethyl)phenyl)-N-1,3,4-thiadiazol-2-yl-7-quinazolinesulfonamide] had a pIC50 of 5.31.

For `COc1cc(-c2cccnc2OC(F)F)ccc1-c1nccc2cc(S(=O)(=O)Nc3nncs3)ccc12` [Example 193, 1-(4-(2-(difluoromethoxy)-3-pyridinyl)-2-methoxyphenyl)-N-1,3,4-thiadiazol-2-yl-6-isoquinolinesulfonamide], the negative logarithm of the IC50 (pIC50) is 6.06.

Regarding `COc1cc(Oc2ccc(F)cn2)ccc1-c1nccc2cc(S(=O)(=O)Nc3ccon3)ccc12` [Example 195, 1-(4-((5-fluoro-2-pyridinyl)oxy)-2-methoxyphenyl)-N-3-isoxazolyl-6-isoquinolinesulfonamide], the negative-log IC50 (pIC50) was 5.79.

Compound `COc1ccc(-c2ccc(-c3nccc4cc(S(=O)(=O)Nc5nncs5)ccc34)c(OC)c2)c(F)n1` [Example 196, 1-(4-(2-fluoro-6-methoxy-3-pyridinyl)-2-methoxyphenyl)-N-1,3,4-thiadiazol-2-yl-6-isoquinolinesulfonamide] gave a pIC50 of 5.98. This pIC50 and that of the compound before are within 0.2 log units of each other.
